Experimental data taken from ChEMBL document CHEMBL1201862, “PubChem BioAssay data set” (2004).
Activity calls are given as the source filed them.

Tests used:
[1] = molecular target: T1, Coagulation factor XII (Homo sapiens, UniProt P00748); assay type: functional;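 further: activated factor XIIa alpha cleaving a fluorogenic AMC peptide substrate; inhibitor potency from loss of enzyme activity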
T1 sequence (P00748 whole entry): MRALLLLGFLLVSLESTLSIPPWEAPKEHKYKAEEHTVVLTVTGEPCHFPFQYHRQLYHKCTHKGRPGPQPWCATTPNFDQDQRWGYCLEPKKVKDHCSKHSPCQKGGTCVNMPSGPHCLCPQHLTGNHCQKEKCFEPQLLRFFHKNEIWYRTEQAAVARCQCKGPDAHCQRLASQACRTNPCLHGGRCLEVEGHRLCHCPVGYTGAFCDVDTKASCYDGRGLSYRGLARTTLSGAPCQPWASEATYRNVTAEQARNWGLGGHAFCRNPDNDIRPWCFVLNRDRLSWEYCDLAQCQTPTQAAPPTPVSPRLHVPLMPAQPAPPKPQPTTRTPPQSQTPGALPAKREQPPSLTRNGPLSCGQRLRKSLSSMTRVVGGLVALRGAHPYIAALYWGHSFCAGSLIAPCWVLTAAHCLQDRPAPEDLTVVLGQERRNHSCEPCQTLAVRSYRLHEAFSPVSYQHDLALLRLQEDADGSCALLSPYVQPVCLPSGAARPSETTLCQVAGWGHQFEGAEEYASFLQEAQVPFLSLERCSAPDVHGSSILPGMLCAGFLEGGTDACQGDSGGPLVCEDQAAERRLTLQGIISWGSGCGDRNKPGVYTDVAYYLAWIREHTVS

[2] = molecular target: T2, Caspase-6 (Homo sapiens, UniProt P55212); experiment: human caspase-6 inhibitors, dose response, biochemical, VEID-R110 fluorescence, cherry-pick (AID 720632)
T2 sequence (P55212 whole entry): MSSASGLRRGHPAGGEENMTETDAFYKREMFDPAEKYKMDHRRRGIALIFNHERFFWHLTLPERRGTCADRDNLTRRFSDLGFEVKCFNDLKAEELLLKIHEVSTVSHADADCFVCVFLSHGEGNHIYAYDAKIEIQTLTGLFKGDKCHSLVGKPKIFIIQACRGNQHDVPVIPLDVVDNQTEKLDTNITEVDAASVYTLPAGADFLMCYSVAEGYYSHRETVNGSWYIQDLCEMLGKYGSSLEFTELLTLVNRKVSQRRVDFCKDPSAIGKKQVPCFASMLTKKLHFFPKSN

[3] = inhibitors of clade B AD8 Env fusion, dose response, cell-based, cherry-pick (AID 652062); assay type: functional;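 further: luciferase signal from cell-cell fusion driven by HIV-1 clade B AD8 Env; potency is for inhibitors of fusion seen as a drop in luminescence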
[4] = ZM109 Env clade C HIV-1 fusion inhibitors, dose response, HeLa effector, CEM target cells, luciferase, cherry-pick (AID 652058); assay type: functional, cell-based
[5] = inhibitors of HIV Env-driven cell fusion, dose response, cherry-pick (AID 652057); assay type: functional, cell-based
[6] = off-target signal loss in HeLa-CEM21 co-culture – HeLa F-luc CTL cells, cherry-picked, counter-screen for HIV-1 Env fusion inhibitor project, dose response (AID 652040); assay type: functional, cell-based;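 further: potency for signal decrease marking cytotoxic or nonspecific inhibition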
[7] = A cytotoxicity screen of small molecule inhibitors of the PhoP region in Salmonella typhi identified in the primary screen. [Related pubchem assays: 1850, 1864, 1985 ]; assay type: functional
[8] = molecular target: T3, Sentrin-specific protease 7 (Homo sapiens, UniProt Q9BQF6); assay type: functional;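 further: Luminescence-based dose-response confirmation of ultra-high-throughput screening hits, measuring inhibition of SENP7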
T3 sequence (Q9BQF6 whole entry): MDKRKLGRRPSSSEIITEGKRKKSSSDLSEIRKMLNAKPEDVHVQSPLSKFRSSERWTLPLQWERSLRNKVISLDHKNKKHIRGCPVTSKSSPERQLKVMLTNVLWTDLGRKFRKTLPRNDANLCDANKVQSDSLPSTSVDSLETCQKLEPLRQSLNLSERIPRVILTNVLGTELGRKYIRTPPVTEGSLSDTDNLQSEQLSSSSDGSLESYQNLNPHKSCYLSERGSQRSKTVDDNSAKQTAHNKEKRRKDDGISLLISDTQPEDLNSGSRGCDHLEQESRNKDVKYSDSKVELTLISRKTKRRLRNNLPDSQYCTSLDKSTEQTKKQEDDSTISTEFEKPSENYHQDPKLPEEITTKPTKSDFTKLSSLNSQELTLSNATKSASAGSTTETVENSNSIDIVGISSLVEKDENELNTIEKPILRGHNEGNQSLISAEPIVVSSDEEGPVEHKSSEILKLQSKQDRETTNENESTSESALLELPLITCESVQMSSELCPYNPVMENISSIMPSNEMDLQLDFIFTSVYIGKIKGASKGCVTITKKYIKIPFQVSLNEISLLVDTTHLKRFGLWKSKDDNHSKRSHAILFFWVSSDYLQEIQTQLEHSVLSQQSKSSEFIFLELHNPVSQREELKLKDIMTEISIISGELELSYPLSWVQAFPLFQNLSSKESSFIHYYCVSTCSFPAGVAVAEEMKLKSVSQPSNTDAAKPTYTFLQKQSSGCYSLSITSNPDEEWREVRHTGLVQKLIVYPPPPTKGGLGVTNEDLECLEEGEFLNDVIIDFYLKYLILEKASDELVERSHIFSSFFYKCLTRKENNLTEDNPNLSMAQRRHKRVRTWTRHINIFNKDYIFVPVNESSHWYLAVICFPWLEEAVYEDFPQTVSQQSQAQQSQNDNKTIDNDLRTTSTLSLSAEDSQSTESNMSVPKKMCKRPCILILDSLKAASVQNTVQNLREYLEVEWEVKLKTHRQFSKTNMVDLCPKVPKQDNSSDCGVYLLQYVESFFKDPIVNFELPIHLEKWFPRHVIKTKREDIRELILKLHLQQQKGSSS

[9] = molecular target: T4, Sentrin-specific protease 8 (Homo sapiens, UniProt Q96LD8); assay type: functional;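 further: luminescence read-out of SENP8 inhibition, dose-response confirmation following an ultra-high-throughput screen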
T4 sequence (Q96LD8 whole entry): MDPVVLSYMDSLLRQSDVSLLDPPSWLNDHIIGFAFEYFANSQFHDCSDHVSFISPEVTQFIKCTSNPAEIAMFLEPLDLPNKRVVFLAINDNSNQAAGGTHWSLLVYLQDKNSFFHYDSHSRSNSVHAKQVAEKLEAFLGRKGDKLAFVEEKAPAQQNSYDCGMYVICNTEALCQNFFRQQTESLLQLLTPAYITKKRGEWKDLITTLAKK

[10] = molecular target: T5, Sentrin-specific protease 6 (Homo sapiens, UniProt Q9GZR1); assay type: functional;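 further: Luminescence-based dose-response confirmatory assay of SENP6 inhibition, following up an ultra-high-throughput screen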
T5 sequence (Q9GZR1 whole entry): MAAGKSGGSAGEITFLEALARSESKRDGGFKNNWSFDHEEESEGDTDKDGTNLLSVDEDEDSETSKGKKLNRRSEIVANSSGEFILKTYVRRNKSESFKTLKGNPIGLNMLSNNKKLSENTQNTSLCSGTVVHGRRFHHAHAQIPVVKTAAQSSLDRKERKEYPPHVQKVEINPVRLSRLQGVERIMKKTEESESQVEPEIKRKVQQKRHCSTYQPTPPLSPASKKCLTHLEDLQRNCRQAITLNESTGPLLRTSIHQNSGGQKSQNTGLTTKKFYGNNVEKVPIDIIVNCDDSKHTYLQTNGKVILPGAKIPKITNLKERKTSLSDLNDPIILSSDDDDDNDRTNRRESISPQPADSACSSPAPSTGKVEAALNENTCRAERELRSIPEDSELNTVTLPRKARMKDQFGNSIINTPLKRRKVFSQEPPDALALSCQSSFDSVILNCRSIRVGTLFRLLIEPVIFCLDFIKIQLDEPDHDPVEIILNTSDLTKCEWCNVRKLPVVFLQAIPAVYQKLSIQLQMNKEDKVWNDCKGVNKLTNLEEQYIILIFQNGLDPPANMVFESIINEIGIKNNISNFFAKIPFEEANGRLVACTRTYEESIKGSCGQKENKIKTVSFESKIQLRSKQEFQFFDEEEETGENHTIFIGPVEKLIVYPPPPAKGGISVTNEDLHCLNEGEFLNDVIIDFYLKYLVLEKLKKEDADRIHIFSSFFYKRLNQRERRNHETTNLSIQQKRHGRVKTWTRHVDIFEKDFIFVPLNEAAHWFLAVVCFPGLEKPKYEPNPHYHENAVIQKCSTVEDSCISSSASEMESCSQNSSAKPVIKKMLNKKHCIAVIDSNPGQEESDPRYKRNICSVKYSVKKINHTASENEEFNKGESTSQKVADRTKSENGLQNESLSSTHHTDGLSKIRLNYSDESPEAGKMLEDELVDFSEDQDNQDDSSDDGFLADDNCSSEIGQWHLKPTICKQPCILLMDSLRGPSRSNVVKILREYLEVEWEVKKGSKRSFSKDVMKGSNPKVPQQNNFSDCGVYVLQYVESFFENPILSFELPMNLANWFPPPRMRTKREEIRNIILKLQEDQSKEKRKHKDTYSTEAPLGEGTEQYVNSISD

[11] = molecular target: T6, Caspase-3 (Homo sapiens, UniProt P42574); assay type: functional;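 further: Dose-response selectivity test against caspase-3 for candidate inhibitors of sentrin-specific proteases (SENPs)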
T6 sequence (P42574 whole entry): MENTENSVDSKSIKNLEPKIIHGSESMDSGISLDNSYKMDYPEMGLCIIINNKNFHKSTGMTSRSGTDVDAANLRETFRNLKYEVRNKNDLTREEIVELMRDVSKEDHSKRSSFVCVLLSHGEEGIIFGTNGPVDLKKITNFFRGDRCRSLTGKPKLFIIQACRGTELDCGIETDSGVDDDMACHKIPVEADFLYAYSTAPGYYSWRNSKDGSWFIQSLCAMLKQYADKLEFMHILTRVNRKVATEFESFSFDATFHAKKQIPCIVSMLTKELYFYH

[12] = HEp-2 cell cytotoxicity, dose response, cytotoxicity control for RSV inhibitor project, HTS (AID 2410); assay type: functional; details: human respiratory syncytial virus
[13] = inhibitors of intracellular T. cruzi replication, confirmation, NIH3T3 host cells, beta-gal luminescence (AID 2044); assay type: functional, cell-based;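 further: intracellular parasites grown in NIH/3T3 mouse fibroblasts as host cells; luminescent beta-galactosidase reporter signal from transgenic T. cruzi replicating inside host cells; inhibitors lower the luminescence signal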
[14] = cytotoxicity toward NIH3T3 fibroblasts, dose response, counter-screen, cell-based, ATP luminescence, mouse fibroblasts (AID 2010); assay type: functional;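 further: cells exposed to compound for about 90 hours before reading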
[15] = NIH:OVCAR-3 ovarian cancer cell cytotoxicity, dose response, PAX8 inhibitor project, plate reader, dry powder samples (AID 743044); assay type: functional, cell-based
[16] = non-specific cell cytotoxicity, dose response, cytotoxicity control for PAX8 inhibitor project, plate reader, dry powder samples (AID 743021); assay type: functional, cell-based
[17] = molecular target: Paired box protein Pax-8 (Homo sapiens, UniProt Q06710); experiment: inhibitors of PAX8-driven TPO luciferase reporter, dose response, RMG-I cells, cherry-pick (AID 687027); assay type: functional, cell-based;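 further: luciferase reporter driven by Pax8 target thyroperoxidase promoter measured by SteadyGlo luminescence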
[18] = cytotoxicity in OVCAR8 ovarian cancer cells, dose response, PAX8 project, cell-based, plate reader, dry powder samples (AID 743197); assay type: functional; details: OVCAR-8
[19] = molecular target: Cytochrome P450 2D6 (Homo sapiens, UniProt P10635);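 further: CYP2D6 member of a cytochrome P450 panel assay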
[20] = THP-1 cell cytotoxicity, dose response, cytotoxicity control for Vif-APOBEC3G degradation inhibitor project, THP-1 cells (AID 1117359); assay type: functional; details: Human immunodeficiency virus 1, THP-1

Sequence of Paired box protein Pax-8 (Q06710 whole entry): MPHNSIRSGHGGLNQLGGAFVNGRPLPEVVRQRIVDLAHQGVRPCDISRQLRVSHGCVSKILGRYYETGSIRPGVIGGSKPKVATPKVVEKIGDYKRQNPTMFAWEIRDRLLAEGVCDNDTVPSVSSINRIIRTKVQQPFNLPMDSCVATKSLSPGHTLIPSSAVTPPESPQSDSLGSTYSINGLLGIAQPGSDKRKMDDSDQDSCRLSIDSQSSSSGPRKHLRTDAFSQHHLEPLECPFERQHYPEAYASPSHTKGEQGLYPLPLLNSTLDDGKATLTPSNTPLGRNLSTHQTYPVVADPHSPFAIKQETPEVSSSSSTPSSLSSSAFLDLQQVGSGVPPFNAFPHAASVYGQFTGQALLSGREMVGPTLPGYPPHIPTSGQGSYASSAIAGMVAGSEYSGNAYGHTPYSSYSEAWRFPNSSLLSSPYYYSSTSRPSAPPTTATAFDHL
Sequence of Cytochrome P450 2D6 (P10635 whole entry): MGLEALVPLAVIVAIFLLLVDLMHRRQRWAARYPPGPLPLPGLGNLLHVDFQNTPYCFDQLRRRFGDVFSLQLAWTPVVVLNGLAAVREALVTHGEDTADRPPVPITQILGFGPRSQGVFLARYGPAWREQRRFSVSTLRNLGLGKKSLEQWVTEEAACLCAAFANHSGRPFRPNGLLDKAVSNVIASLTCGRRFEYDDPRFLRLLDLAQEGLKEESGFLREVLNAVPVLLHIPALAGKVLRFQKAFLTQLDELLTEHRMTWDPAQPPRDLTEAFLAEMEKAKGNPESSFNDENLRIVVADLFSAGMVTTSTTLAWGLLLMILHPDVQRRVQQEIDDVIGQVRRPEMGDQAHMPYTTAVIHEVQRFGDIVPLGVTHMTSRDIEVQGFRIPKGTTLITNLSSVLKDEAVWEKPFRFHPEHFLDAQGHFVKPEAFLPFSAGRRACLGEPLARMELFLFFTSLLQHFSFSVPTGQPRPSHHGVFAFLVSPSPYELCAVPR

## Cc1ccc(NC(=O)/C(CN(C)C)=N\O)cc1
[1]
  IC50: > 50 µM (inactive)

## O=C(O)c1c2c(nc3ccc(Cl)cc13)CCC2
[2]
  AC50: 28.8 µM (active)

## CCc1ccc([C@H]2[C@@H]3C(=O)C[C@@H]4C(=O)N(C5CCCCC5)C(=O)[C@@H]4[C@@H]3CN2S(=O)(=O)c2ccc(C)cc2)cc1
[3]
  AC50: 2.15 µM (active)
[4]
  AC50: 1.99 µM (active)
[5]
  AC50: 1.09 µM (active)
[6]
  AC50: 2.53 µM (active)

## CCC(=O)OCCn1c(=O)c2cc3c(=O)n(CCOC(=O)CC)c(=O)c3cc2c1=O
[1]
  IC50: > 50 µM (inactive)

## COCC1CCCN(Cc2c[nH]nc2-c2cc3ccccc3o2)C1 (configuration not stated)
[7]
  EC50: > 50 µM (active)

## Cc1ccnc(Nc2nc(-c3ccccc3)cs2)c1
[8]
  IC50: 1.78 µM (active)
[9]
  IC50: 3.93 µM (active)
[10]
  IC50: 7.16 µM (active)
[11]
  IC50: 13.1 µM (active)

## O=C(COC(=O)c1cccc(NC(=O)c2ccco2)c1)c1ccc(Br)cc1
[8]
  IC50: 6.05 µM (active)
[9]
  IC50: 8.37 µM (active)
[10]
  IC50: 9.01 µM (active)
[11]
  IC50: 32.2 µM (active)

## O=C(OCC(=O)N1CCCc2ccccc21)c1ccc(Cl)nc1
[1]
  IC50: > 50 µM (inactive)

## O=C1Cc2ccccc2C(=O)N1Nc1ccccc1
[2]
  AC50: 51.5 µM (active)

## COc1ccc(-c2cc(-c3nnc(COC(=O)CC4CC5CCC4C5)o3)c3ccccc3n2)cc1OC (configuration not stated)
[1]
  IC50: > 50 µM (inactive)

## O=C(Nc1ccc2[nH]c(-c3ccc(Br)o3)nc2c1)c1cccs1
[12]
  CC50: 24 µM (active)
[7]
  EC50: > 50 µM (active)
[13]
  EC50: 3.18 µM (active)
[14]
  EC50: > 60 µM (not active)

## O=C(C[C@@H]1C[C@@H]2c3cc(NS(=O)(=O)c4ccc(F)cc4)ccc3O[C@@H]2[C@@H](CO)O1)NCc1ccc(Oc2ccccc2)cc1
[15]
  AC50: 22.1 µM (active)
[16]
  AC50: 27.8 µM (active)
[17]
  AC50: 6.15 µM (active)
[18]
  AC50: 17.9 µM (active)

## Cc1ccc(S(=O)(=O)N(CC(=O)NCCC2=CCCCC2)Cc2ccccc2F)cc1
[19]
  AC50: 20 µM (inconclusive)
[20]
  CC50: > 40 µM (active)

## CSCCC(NS(=O)(=O)c1ccc2c(c1)oc(=O)n2C)C(=O)NC1CCCc2ccccc21 (configuration not stated)
[3]
  AC50: 8.37 µM (active)
[4]
  AC50: 3.16 µM (active)
[5]
  AC50: 4.21 µM (active)
[6]
  AC50: 7.6 µM (active)

## Cc1c(C=O)c2ccccn2c1C(=O)c1ccccc1
[7]
  EC50: > 50 µM (active)

## O=c1c(-c2cc(O)[nH]n2)c(O)c2ccccc2n1Cc1ccccc1
[2]
  AC50: 19.7 µM (active)

## COC(=O)c1ccccc1NC(=O)Nc1cc(C)ccn1
[1]
  IC50: > 50 µM (inactive)

## CCn1nnnc1SCC(=O)c1cc(Cl)ccc1OC
[7]
  EC50: > 50 µM (active)
